Results reported in US10087466B2 (priority 2016, dated 2018).
Marks after values point to notes of the source that are not given here.

Columns and labels:
Format in all cases: in vivo
[1] = system: weaned pigs; assay: Pig growth measurement (body weight, feed intake, feed/gain) in weaned pigs; settings: mean±SD
[2] = system: pig antioxidative function; assay: Serum antioxidative function measurement (T-AOC, GPx, SOD, MDA) with kits; settings: diet + 0.3 mg/kg Na2SeO3 or 0.14 mg/kg nanostructure, mean±SD
[3] = system: Serum IgG and IgM; assay: Serum IgG and IgM by turbidimetric inhibition immuno assay; settings: pig serum; diet + 0.3 mg/kg Na2SeO3 or 0.14 mg/kg nanostructure; mean±SD
[4] = system: Serum inflammatory cytokine TNF-α, IL-2 and IL-6; assay: Serum inflammatory cytokines (TNF-α, IL-2, IL-6) by ELISA; settings: pig serum; diet + 0.3 mg/kg Na2SeO3 or 0.14 mg/kg nanostructure; mean±SD
[5] = day 28 to 67, diet + 0.3 mg/kg Na2SeO3 or 0.14 mg/kg nanostructure

SMILES: O=[Se](O)O [sodium selenite]
- Final weight ([1]; 67-day-old, basic diet + 0.3 mg/kg Na2SeO3 (group 1) or 0.14 mg/kg biogenic elemental selenium nanostructure (group 2)): 24.17 ± 0.76^a kg
- Average daily feed intake [1, 5]: 654.17 ± 37.64 g
- Average daily gain [1, 5]: 411.54 ± 20.63^a g
- Feed/gain ratio [1, 5]: 1.59 ± 0.01^b
- GPx [2]: 238.56 ± 13.07^a U/mL
- MDA [2]: 3.31 ± 0.10^a nmol/mL
- SOD [2]: 147.94 ± 5.89^a U/mL
- T-AOC [2]: 2.51 ± 0.16^a U/mL
- IgG [3]: 2.66 ± 0.23^ab g/L
- IgM [3]: 0.71 ± 0.07^a g/L
- IL-2 [4]: 108.19 ± 10.26^ab ng/L
- IL-6 [4]: 571.10 ± 38.62^ab ng/L
- TNF-α [4]: 41.86 ± 4.50^ab ng/L
